From article PMC8229862, “Elaiophylin Is a Potent Hsp90/ Cdc37 Protein Interface Inhibitor with K-Ras Nanocluster Selectivity” (Biomolecules, 2021)

Columns and labels:
Hsp90α = biological target: T1, Hsp90α (Homo sapiens, UniProt P07900); test: co-immunoprecipitation of Cdc37 with Hsp90α from cells treated with […] for […] h; format: cell-based
T1 construct: gene HSP90AA1; endogenous Hsp90 in MDA-MB-231 or MIA PaCa-2 cells; with Cdc37

[1] = biological target: T2, Hsp90 (N-terminal domain) (Homo sapiens, UniProt P07900); test: lysate-based split Renilla luciferase Hsp90/Cdc37 interaction assay; supported by co-immunoprecipitation; format: biochemical
T2 construct: gene HSP90AA1; N-terminal fragment of Hsp90 (NRL-N-Hsp90); with Cdc37

With `C/C1=C\[C@H](C)C[C@H](C)[C@H](Cc2cnco2)OC(=O)/C(C)=C/[C@H](C)C[C@H](C)[C@H](Cc2cnco2)OC1=O` [conglobatin A] the “co-immunoprecipitation of Cdc37 with Hsp90α from cells treated with 10 μM for 24” value (Hsp90α) was “Both elaiophylin and conglobatin A treatment reduced the amount of co-precipitated Cdc37”.
In the case of `CC[C@@H]1[C@@H](C)O[C@@](O)([C@@H](C)[C@H](O)[C@H](C)[C@H]2OC(=O)/C=C/C=C/[C@H](C)[C@@H]([C@@H](C)[C@@H](O)[C@H](C)[C@@]3(O)C[C@@H](O[C@H]4C[C@H](O)[C@H](O)[C@H](C)O4)[C@H](CC)[C@@H](C)O3)OC(=O)/C=C/C=C/[C@@H]2C)C[C@H]1O[C@H]1C[C@H](O)[C@H](O)[C@H](C)O1` [elaiophylin], the IC50 [1] is reported as 11 ± 4 µM.
